Assay results published in BindingDB's records for PubMed 7509389 (Fujisawa Pharmaceutical, 1994).

Target: T1, Gastrin/cholecystokinin type B receptor (Rattus norvegicus, UniProt P30553)
T1 sequence (P30553 whole entry): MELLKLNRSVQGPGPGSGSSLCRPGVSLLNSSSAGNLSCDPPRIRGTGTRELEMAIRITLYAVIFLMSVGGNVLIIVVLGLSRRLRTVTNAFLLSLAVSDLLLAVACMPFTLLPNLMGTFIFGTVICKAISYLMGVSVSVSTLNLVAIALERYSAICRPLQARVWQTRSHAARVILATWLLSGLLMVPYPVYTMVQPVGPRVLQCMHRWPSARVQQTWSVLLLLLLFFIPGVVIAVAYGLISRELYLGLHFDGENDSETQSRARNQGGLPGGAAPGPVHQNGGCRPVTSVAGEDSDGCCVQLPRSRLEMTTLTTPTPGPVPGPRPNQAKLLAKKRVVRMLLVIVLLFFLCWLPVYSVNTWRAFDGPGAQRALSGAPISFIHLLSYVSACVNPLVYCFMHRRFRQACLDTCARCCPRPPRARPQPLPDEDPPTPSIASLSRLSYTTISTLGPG

`CCCCCN(CCCOC)C(=O)C(CCC(=O)O)NC(=O)c1ccc(Cl)c(Cl)c1` (stereo unspecified) [4-(3,4-dichlorobenzamido)-5-((3-methoxypropyl)(pentyl)amino)-5-oxopentanoic acid] gave a Ki of 330 nM.
